Assay [1] deals with Wnt pathway (Sp5-Luc reporter, TCF/LEF binding sites) in SW480 colon carcinoma cells. Briefly: Screening assay for Wnt activity: Sp5-Luc reporter gene assay.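 As to all read-outs here: firefly luciferase luminescence read in stably transduced SW480 cells carrying the Sp5 promoter reporter with eight TCF/LEF sites, compounds given in 0.1% DMSO final.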 The assay is classed as cell-based, human. To be noted: Homo sapiens; for EC50: Sp5-Luc reporter, SW480 cells, 36 to 48 hours; for inhibition at 10 µM: SW480, read-out: percent inhibition at 10 μM. (In general: Reporter assays use an easily measured gene product as a stand-in for the process of interest.)
Method: The screening assay for Wnt activity is described as follows.
Following incubation, 15 μl of BriteLite Plus luminescence reagent (Perkin Elmer) was added to each well of the 384-well assay plates. The plates were placed on an orbital shaker for 2 min and then luminescence was quantified using the Envision (Perkin Elmer) plate reader.

Assay [2] has as its target recombinant DYRK1A kinase (Homo sapiens (Human), UniProt Q13627). Briefly: DYRK1A kinase assay (Ser/Thr 18 peptide Z-lyte FRET).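 Also: Read-out is the coumarin to fluorescein emission ratio, referenced to unphosphorylated (0%) and phosphorylated (100%) Ser/Thr 18 peptide controls, values from dose-response curves by non-linear regression.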 The format is biochemical. To be noted: 30 μM ATP, 1 h room temperature.
The next assay concerns the target recombinant GSK3β kinase (Homo sapiens (Human), UniProt P49841). As to the kind of experiment: GSK3β kinase assay (Ser/Thr 09 peptide Z-lyte FRET).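 Also: kinase activity read as coumarin to fluorescein emission ratio, 11-point threefold dilutions from 10 µM to 0.0003 µM in duplicate, unphosphorylated and phosphorylated peptide as 0% and 100% controls.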 The format is biochemical. To be noted: 46 μM ATP, 1 h room temperature.
For assay [3], the system named is Tau phosphorylation at Ser396 (pSer396). Briefly: Tau phosphorylation assay (pSer396 ELISA / western blot) in SH-SY5Y cells.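 Also: EC50 for reduction of Tau pSer396 in lysed cells, measured by colorimetric ELISA or chemiluminescent western blot, both using the same pSer396 antibody.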 As to conditions: Homo sapiens; SH-SY5Y cells, overnight (16-18 h) exposure; read-out: pSer396 Tau EC50. The format is cell-based, human.
Assay [4] relates to SW480 colon carcinoma cells. As to the kind of experiment: Cell viability assay (CellTiter-Glo). The assay is classed as cell-based, human. To be noted: Homo sapiens; for EC50: 96 h, SW480 cells, CellTiter-Glo, four days incubation; for inhibition at 10 µM: SW480, read-out: percent inhibition at 10 μM. (In general: Cellular ATP, detected with luciferase, serves as a proxy for viable cell number.)

Assay [5] deals with α-smooth muscle actin (αSMA) positive LL29 cells. Briefly: Inhibition of fibrotic process: αSMA in TGF-β1 treated primary human fibroblasts from IPF patients.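 As to all read-outs here: controls were TGF-β1 stimulated wells with DMSO vehicle (positive) and cells given DMSO alone (negative), cultured in F12 medium with 1% fetal bovine serum.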 To be noted: Homo sapiens, Fibroblast; for EC50: 96 h, Table 8, LL29 fibroblasts from IPF patients, TGF-β1 20 ng/mL, 4 days, dose-response 10 μM to 0.94 nM; for inhibition at 10 µM: read-out: percent value in parentheses beside EC50 >10 μM. The assay is classed as cell-based.

The test system of a further assay is IL-6. As to the kind of experiment: IL-6 inhibition in LPS-stimulated human peripheral blood mononuclear cells (HTRF).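 As to all read-outs here: IL-6 detected by HTRF with an XL665- and Cryptate-labelled anti-IL-6 antibody pair, samples run in duplicate, EC50 obtained from a four-parameter Levenberg-Marquardt curve fit.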 The format is cell-based. As to conditions: Homo sapiens, PBMC; for EC50: Table 9, huPBMCs, LPS 50 ng/mL, 22 hours, dose-response starting from 10 μM; for inhibition at 10 µM: read-out: percent value in parentheses beside EC50 >10 μM. A general note: TR-FRET usually uses a lanthanide donor and a delayed reading to cut background.

Sequence of recombinant GSK3β kinase (P49841 whole entry): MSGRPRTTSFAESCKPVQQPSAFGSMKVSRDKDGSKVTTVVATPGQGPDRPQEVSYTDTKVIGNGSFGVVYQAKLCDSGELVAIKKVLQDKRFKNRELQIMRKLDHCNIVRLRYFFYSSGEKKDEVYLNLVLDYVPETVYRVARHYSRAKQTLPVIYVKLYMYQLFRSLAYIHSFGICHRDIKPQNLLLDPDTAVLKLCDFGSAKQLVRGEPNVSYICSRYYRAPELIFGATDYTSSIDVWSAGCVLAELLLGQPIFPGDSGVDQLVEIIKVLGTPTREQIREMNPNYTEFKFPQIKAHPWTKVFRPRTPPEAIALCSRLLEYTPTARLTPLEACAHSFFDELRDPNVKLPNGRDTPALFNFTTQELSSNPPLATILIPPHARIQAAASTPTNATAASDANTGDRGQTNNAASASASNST
Method for IL-6: After 22 hour incubation, a mixture of anti-IL6 XL665 and anti-IL-6 Cryptate diluted in reconstitution buffer (Catalog #62IL6PEC, Cisbio Inc., Bedford, Mass.) was added to each well. […] All samples were processed in duplicate. […] EC50 was determined using software generated by Dotmatics Limited (Windhill Bishops Stortford Herts, UK) using the Levenberg-Marquardt 4 parameter fitting procedure with finite different gradients.

As to `Cn1cc(-c2ccc3cnc(NC(=O)C4CCC(F)(F)CC4)cc3c2)cn1` [Compound 3, 4,4-Difluoro-N-(6-(1-methyl-1H-pyrazol-4-yl)isoquinolin-3-yl) cyclohexanecarboxamide], the concentration for a half-maximal effect (EC50) (as a rule, the concentration needed to bring the measured effect to its halfway point) was 1700 nM in assay [1]; 3.7 nM in assay [2]; 38 nM at recombinant GSK3β kinase; 288 nM in assay [3]; 2800 nM in assay [4]; 103 nM in assay [5]. Further, in the assay on IL-6, the EC50 amounted to 792 nM.
On to `CO[C@H]1CC[C@H](C(=O)Nc2cc3cc(-c4cnn(C)c4)ccc3cn2)CC1` [Compound 4, trans-4-Methoxy-N-(6-(1-methyl-1H-pyrazol-4-yl)isoquinolin-3-yl) cyclohexane-1-carboxamide], for which the EC50 in assay [1] is 983 nM; in assay [2] it was 1.8 nM; on recombinant GSK3β kinase, 80 nM; in assay [3] it was 671 nM; in assay [4], 1940 nM; in assay [5] it was 68 nM. In the assay with IL-6, the concentration giving a half-maximal response (EC50) worked out at 1130 nM.
For the compound `Cn1cc(-c2ccc3cnc(NC(=O)[C@H]4CC[C@H](N5CCOCC5)CC4)cc3c2)cn1` [Compound 6, trans-N-(6-(1-Methyl-1H-pyrazol-4-yl)isoquinolin-3-yl)-4-morpholinocyclohexane-1-carboxamide], the EC50 in assay [1] is 1110 nM; in assay [2] it was 1.3 nM; at recombinant GSK3β kinase it was 65 nM; in assay [3] it was 475 nM; in assay [4], 1260 nM; in assay [5], greater than 10000 nM. In the assay with IL-6, this compound came in with an EC50 of 1290 nM. Moreover, in assay [5], the inhibition at 10 µM was found to be 45.6%.
`Cn1cc(-c2ccc3cnc(NC(=O)CN4CCC(C(F)F)CC4)cc3c2)cn1` [Compound 295, 2-(4-(Difluoromethyl)piperidin-1-yl)-N-(6-(1-methyl-1H-pyrazol-4-yl)isoquinolin-3-yl)acetamide]: the EC50 in assay [1] is 2570 nM; in assay [2] it was 2.8 nM; at recombinant GSK3β kinase, 20 nM; in assay [3] it was 430 nM; in assay [5], 4460 nM; in the assay on IL-6 it was greater than 10000 nM. The inhibition at 10 µM in the assay on IL-6 stood at 5.9%.
With `O=C(Nc1cc2cc(-c3cnco3)ccc2cn1)C1CCOCC1` [Compound 976, N-(6-(Oxazol-5-yl)isoquinolin-3-yl)tetrahydro-2H-pyran-4-carboxamide], the EC50 in assay [1] came to 2960 nM; in assay [2], 6.1 nM; at recombinant GSK3β kinase, 146 nM; in assay [3] it was 536 nM; in assay [4] it was 3880 nM; in assay [5], 1170 nM.
As to `Cn1cc(-c2ccc3cnc(NC(=O)OC(C)(C)C)cc3c2)cn1` [Compound 1025, tert-Butyl (6-(1-methyl-1H-pyrazol-4-yl)isoquinolin-3-yl)carbamate], the concentration for a half-maximal effect (EC50) is greater than 10000 nM in assay [1]; 78 nM in assay [2]; 100 nM on recombinant GSK3β kinase; greater than 10000 nM in assay [3]; greater than 10000 nM in assay [5]; greater than 10000 nM in the assay with IL-6. Moreover, the inhibition at 10 µM in assay [5] worked out at 31.4%; with IL-6, 13.6%.
Regarding `Cc1nnc(-c2ccc3cnc(NC(=O)CN4CCCOCC4)cc3c2)s1` [Compound 1049, N-(6-(5-Methyl-1,3,4-thiadiazol-2-yl)isoquinolin-3-yl)-2-(1,4-oxazepan-4-yl) acetamide], the EC50 was 2540 nM in assay [1]; 6.9 nM in assay [2]; 12 nM at recombinant GSK3β kinase; 319 nM in assay [3]; greater than 10000 nM in assay [4]; greater than 10000 nM with IL-6. The inhibition at 10 µM came out at 31.3% in assay [4] and 10.4% in the assay with IL-6.
On to `CC(F)(F)CN1CCC(C(=O)Nc2cc3cc(-c4cnco4)ccc3cn2)CC1` [Compound 1057, 1-(2,2-Difluoropropyl)-N-(6-(oxazol-5-yl)isoquinolin-3-yl)piperidine-4-carboxamide], for which the inhibition at 10 µM in assay [1] worked out at 5%. Moreover, the concentration for a half-maximal effect (EC50) in assay [1] is greater than 10000 nM; in assay [2], 2.7 nM; on recombinant GSK3β kinase, 97 nM; in assay [3] it was 342 nM; in assay [4] it was 4500 nM; in the assay on IL-6, 3200 nM.
Regarding `Cc1ncc(-c2ccc3cnc(NC(=O)[C@H]4C[C@H](N5CCOCC5)C4)cc3c2)o1` [Compound 1061, trans-N-(6-(2-Methyloxazol-5-yl)isoquinolin-3-yl)-3-morpholinocyclobutane-1-carboxamide], the EC50 in assay [1] amounted to 1610 nM; in assay [2] it was 4.3 nM; at recombinant GSK3β kinase, 8 nM; in assay [3] it was 58 nM; in assay [4], 1600 nM; in the assay with IL-6, 947 nM.
As for `Cc1ncc(-c2ccc3cnc(NC(=O)CN4CCOCC4)cc3c2)o1` [Compound 1067, N-(6-(2-Methyloxazol-5-yl)isoquinolin-3-yl)-2-morpholinoacetamide], the inhibition at 10 µM in assay [1] worked out at 48.7%; in assay [4], 43.1%. Besides, the EC50 in assay [1] is greater than 10000 nM; in assay [2], 18.8 nM; at recombinant GSK3β kinase, 67 nM; in assay [3], 729 nM; in assay [4] it was greater than 10000 nM; in the assay with IL-6, 8940 nM.
Take `Cc1ncc(-c2ccc3cnc(NC(=O)CCN4CCOCC4)cc3c2)o1` [Compound 1068, N-(6-(2-Methyloxazol-5-yl)isoquinolin-3-yl)-3-morpholinopropanamide]: the concentration giving a half-maximal response (EC50) in assay [1] is 3720 nM; in assay [2], 5.3 nM; at recombinant GSK3β kinase, 36 nM; in assay [3], 689 nM; in assay [4] it was greater than 10000 nM; with IL-6, 3400 nM. Also, in assay [4], the inhibition at 10 µM is 46%.
Take `CN(C)c1nnc(-c2ccc3cnc(NC(=O)C4CCNCC4)cc3c2)o1` [Compound 1075, N-(6-(5-(Dimethylamino)-1,3,4-oxadiazol-2-yl)isoquinolin-3-yl)piperidine-4-carboxamide]: the 50% effective concentration (EC50) was 2540 nM in assay [1]; 13.7 nM in assay [2]; 15 nM on recombinant GSK3β kinase; 709 nM in assay [3]; 5280 nM in assay [4]; 3270 nM with IL-6.
Take `COC1CCN(CC(=O)Nc2cc3cc(-c4cnn(C)c4)ccc3cn2)CC1` [Compound 1077, 2-(4-Methoxypiperidin-1-yl)-N-(6-(1-methyl-1H-pyrazol-4-yl)isoquinolin-3-yl)acetamide]: the 50% effective concentration (EC50) in assay [1] is 5190 nM; in assay [2], 4.5 nM; at recombinant GSK3β kinase, 32 nM; in assay [3], 425 nM; in assay [4] it was 5250 nM; in the assay with IL-6, 3170 nM.
As for `Cn1cc(-c2ccc3cnc(NC(=O)CN4CCC(O)CC4)cc3c2)cn1` [Compound 1078, 2-(4-Hydroxypiperidin-1-yl)-N-(6-(1-methyl-1H-pyrazol-4-yl)isoquinolin-3-yl)acetamide], the concentration for a half-maximal effect (EC50) was determined as 4030 nM in assay [1]; 6 nM in assay [2]; 70 nM at recombinant GSK3β kinase; 458 nM in assay [3]; 4410 nM in assay [4]; 3240 nM with IL-6.
On to `CC(C)CN1CCCC(C(=O)Nc2cc3cc(-c4cnn(C)c4)ccc3cn2)CC1` (stereo not shown) [Compound 1079, 1-Isobutyl-N-(6-(1-methyl-1H-pyrazol-4-yl)isoquinolin-3-yl)azepane-4-carboxamide], for which the 50% effective concentration (EC50) in assay [1] came to 1430 nM; in assay [2] it was 5.7 nM; at recombinant GSK3β kinase, 48 nM; in assay [3], 190 nM; in assay [4], 2600 nM; in the assay on IL-6, 1210 nM.
Take `CN1CCCC(C(=O)Nc2cc3cc(-c4cnn(C)c4)ccc3cn2)CC1` (stereo not shown) [Compound 1080, 1-Methyl-N-(6-(1-methyl-1H-pyrazol-4-yl)isoquinolin-3-yl)azepane-4-carboxamide]: the half-maximal effective concentration (EC50) in assay [1] worked out at 1220 nM; in assay [2] it was 3.2 nM; at recombinant GSK3β kinase, 56 nM; in assay [3] it was 251 nM; in assay [4] it was 1380 nM; in the assay with IL-6 it was 1070 nM.
For the compound `Cc1ncc(-c2ccc3cnc(NC(=O)[C@H]4CC[C@H](N(C)C)CC4)cc3c2)o1` [Compound 1082, trans-4-(Dimethylamino)-N-(6-(2-methyloxazol-5-yl)isoquinolin-3-yl) cyclohexane-1-carboxamide], the EC50 in assay [1] is 9900 nM; in assay [2], 10.2 nM; on recombinant GSK3β kinase it was 210 nM; in assay [3], 1100 nM; in assay [4] it was 7100 nM; in the assay with IL-6 it was 2930 nM.
Take `CN1CCN(CC23CC(C(=O)Nc4cc5cc(-c6cnn(C)c6)ccc5cn4)(C2)C3)CC1` [Compound 1088, N-(6-(1-Methyl-1H-pyrazol-4-yl)isoquinolin-3-yl)-3-((4-methylpiperazin-1-yl)methyl)bicyclo[1.1.1]pentane-1-carboxamide]: the half-maximal effective concentration (EC50) in assay [1] worked out at 7400 nM; in assay [2], 9.3 nM; on recombinant GSK3β kinase, 937 nM; in assay [3], 8600 nM; in assay [4], 9190 nM; with IL-6, 5980 nM.
In the case of `CN1CCC(NC(=O)Nc2cc3cc(-c4cnn(C)c4)ccc3cn2)CC1` [Compound 1090, 1-(6-(1-Methyl-1H-pyrazol-4-yl)isoquinolin-3-yl)-3-(1-methylpiperidin-4-yl)urea], the EC50 in assay [1] came out at 722 nM; in assay [2], 6.9 nM; at recombinant GSK3β kinase, 288 nM; in assay [3] it was 969 nM; in assay [4] it was 994 nM; in the assay on IL-6 it was 484 nM.

(Values after patent US10287267B2, “Isoquinolin-3-yl carboxamides and preparation and use thereof” (Samumed, LLC, priority 2016, dated 2019).)
